These results are taken from patent US10183950B2, “Thienopyrimidine inhibitors of atypical protein kinase C” (Cancer Research Technology Limited, priority 2011, dated 2019).

The structures appear in SMILES notation.

The assay addresses T1, kinase-domain human PKCι (Homo sapiens, UniProt P41743).
T1 construct: Recombinant, kinase-domain human PKCι is expressed and purified in-house; made in house
T1 sequence (P41743 254-522 limits assumed): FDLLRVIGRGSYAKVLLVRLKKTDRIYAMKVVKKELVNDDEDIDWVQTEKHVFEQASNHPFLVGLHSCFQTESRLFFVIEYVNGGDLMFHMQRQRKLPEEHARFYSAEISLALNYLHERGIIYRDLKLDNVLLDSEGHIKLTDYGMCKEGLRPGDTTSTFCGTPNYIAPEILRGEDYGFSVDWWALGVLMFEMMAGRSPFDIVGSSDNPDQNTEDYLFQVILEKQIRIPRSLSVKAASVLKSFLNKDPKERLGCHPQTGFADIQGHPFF
The assay can be described thus: PKCι IC50 IMAP fluorescence polarisation assay, kinase-domain enzyme. The format is biochemical. As to conditions: kinase domain PKCi at 2 μM ATP; read-out: IC50 in IMAP assay against kinase domain PKCi (Activity).
In the case of `CC(C)CN1CCN(c2nc(-c3ccncc3)nc3sc4c(c23)CCCC4)CC1` [compound 134, 4-(4-Isobutyl-piperazin-1-yl)-2-pyridin-4-yl-5,6,7,8-tetrahydro-benzo[4,5]thieno[2,3-d]pyrimidine], the IC50 was in the range of 10 to 40 µM.
For the compound `CN(C)CCOc1nc(-c2ccncc2)nc2sc3c(c12)CCCC3` [compound 135, dimethyl-[2-(2-pyridin-4-yl-5,6,7,8-tetrahydro-benzo[4,5]thieno[2,3-d]pyrimidin-4-yloxy)-ethyl]-amine], the IC50 is 1 to 10 µM.
Then `NCCOc1nc(-c2ccncc2)nc2sc3c(c12)CCCC3` [compound 136], with 0.1 to 1 µM; and `CNCCOc1nc(-c2ccncc2)nc2sc3c(c12)CCCC3` [compound 137, Methyl-[2-(2-pyridin-4-yl-5,6,7,8-tetrahydro-benzo[4,5]thieno[2,3-d]pyrimidin-4-yloxy)-ethyl]-amine], with 1 to 10 µM.
For `CC(C)C[C@H](N)COc1nc(-c2ccncc2)nc2sc3c(c12)CCCC3` [compound 138, (S)-3-Methyl-1-(2-pyridin-4-yl-5,6,7,8-tetrahydro-benzo[4,5]thieno[2,3-d]pyrimidin-4-yloxymethyl)-butylamine], the half-maximal inhibitory concentration (IC50) was in the range of 1 to 10 µM.
For `c1cc(-c2nc(O[C@H]3CCNC3)c3c4c(sc3n2)CCCC4)ccn1` [compound 140, 2-Pyridin-4-yl-4-((S)-pyrrolidin-3-yloxy)-5,6,7,8-tetrahydro-benzo[4,5]thieno[2,3-d]pyrimidine], the IC50 was in the range of 1 to 10 µM.
Regarding `c1cc(-c2nc(OC3CCCNC3)c3c4c(sc3n2)CCCC4)ccn1` (centres unmarked) [compound 141, 4-(Piperidin-3-yloxy)-2-pyridin-4-yl-5,6,7,8-tetrahydro-benzo[4,5]thieno[2,3-d]pyrimidine], the IC50 lay within 1 to 10 µM.
Regarding `N[C@@H](COc1nc(-c2ccncc2)nc2sc3c(c12)CCCC3)Cc1ccccc1` [compound 142, (R)-2-Phenyl-1-(2-pyridin-4-yl-5,6,7,8-tetrahydro-benzo[4,5]thieno[2,3-d]pyrimidin-4-yloxymethyl)-ethylamine], the 50% inhibitory concentration (IC50) lay within 10 to 40 µM.
For the compound `N[C@H](COc1nc(-c2ccncc2)nc2sc3c(c12)CCCC3)Cc1ccccc1` [compound 143, (S)-2-Phenyl-1-(2-pyridin-4-yl-5,6,7,8-tetrahydro-benzo[4,5]thieno[2,3-d]pyrimidin-4-yloxymethyl)-ethylamine], the IC50 was 0.1 to 1 µM.
Turning to `C[C@H](N)COc1nc(-c2ccncc2)nc2sc3c(c12)CCCC3` [compound 144, (S)-1-Methyl-2-(2-pyridin-4-yl-5,6,7,8-tetrahydro-benzo[4,5]thieno[2,3-d]pyrimidin-4-yloxy)-ethylamine], the IC50 lay within 0.1 to 1 µM.
For `C[C@@H](N)COc1nc(-c2ccncc2)nc2sc3c(c12)CCCC3` [compound 145, (R)-1-Methyl-2-(2-pyridin-4-yl-5,6,7,8-tetrahydro-benzo[4,5]thieno[2,3-d]pyrimidin-4-yloxy)-ethylamine], the half-inhibitory concentration (IC50) was in the range of 1 to 10 µM.
Consider `CC(C)C[C@@H](N)COc1nc(-c2ccncc2)nc2sc3c(c12)CCCC3` [compound 146, (R)-3-Methyl-1-(2-pyridin-4-yl-5,6,7,8-tetrahydro-benzo[4,5]thieno[2,3-d]pyrimidin-4-yloxymethyl)-butylamine], for which the IC50 lay within 1 to 10 µM.
As for `N[C@@H](COc1nc(-c2ccncc2)nc2sc3c(c12)CCCC3)c1ccccc1` [compound 147, (R)-1-Phenyl-2-(2-pyridin-4-yl-5,6,7,8-tetrahydro-benzo[4,5]thieno[2,3-d]pyrimidin-4-yloxy)-ethylamine], the half-inhibitory concentration (IC50) was in the range of 10 to 40 µM.
For `CC(C)[C@@H](N)COc1nc(-c2ccncc2)nc2sc3c(c12)CCCC3` [compound 148, (R)-2-Methyl-1-(2-pyridin-4-yl-5,6,7,8-tetrahydro-benzo[4,5]thieno[2,3-d]pyrimidin-4-yloxymethyl)-propylamine] the value was 10 to 40 µM; for `CC[C@@H](N)COc1nc(-c2ccncc2)nc2sc3c(c12)CCCC3` [compound 149, (R)-1-(2-Pyridin-4-yl-5,6,7,8-tetrahydro-benzo[4,5]thieno[2,3-d]pyrimidin-4-yloxymethyl)-propylamine], 1 to 10 µM.
`CC[C@H](N)COc1nc(-c2ccncc2)nc2sc3c(c12)CCCC3` [compound 150, (S)-1-(2-Pyridin-4-yl-5,6,7,8-tetrahydro-benzo[4,5]thieno[2,3-d]pyrimidin-4-yloxymethyl)-propylamine]: the IC50 lay in the range of 1 to 10 µM.
`CC(C)[C@H](N)COc1nc(-c2ccncc2)nc2sc3c(c12)CCCC3` [compound 151, (S)-2-Methyl-1-(2-pyridin-4-yl-5,6,7,8-tetrahydro-benzo[4,5]thieno[2,3-d]pyrimidin-4-yloxymethyl)-propylamine]: the IC50 lay in the range of 1 to 10 µM.
Then `c1cc(-c2nc(OC3CNC3)c3c4c(sc3n2)CCCC4)ccn1` [compound 152, 4-(Azetidin-3-yloxy)-2-pyridin-4-yl-5,6,7,8-tetrahydro-benzo[4,5]thieno[2,3-d]pyrimidine], with 1 to 10 µM; and `c1cc(-c2nc(OC[C@H]3CCCN3)c3c4c(sc3n2)CCCC4)ccn1` [compound 153, 2-Pyridin-4-yl-4-((R)-1-pyrrolidin-2-ylmethoxy)-5,6,7,8-tetrahydro-benzo[4,5]thieno[2,3-d]pyrimidine], with 1 to 10 µM; and `c1cc(-c2nc(OC[C@@H]3CCCN3)c3c4c(sc3n2)CCCC4)ccn1` [compound 154, 2-Pyridin-4-yl-4-((S)-1-pyrrolidin-2-ylmethoxy)-5,6,7,8-tetrahydro-benzo[4,5]thieno[2,3-d]pyrimidine], with 1 to 10 µM.
As to `N[C@H](COc1nc(-c2ccncc2)nc2sc3c(c12)CCCC3)c1ccccc1` [compound 155, (S)-1-Phenyl-2-(2-pyridin-4-yl-5,6,7,8-tetrahydro-benzo[4,5]thieno[2,3-d]pyrimidin-4-yloxy)-ethylamine], the half-maximal inhibitory concentration (IC50) was in the range of 1 to 10 µM.
For `N[C@H](COc1nc(-c2ccncc2)nc2sc3c(c12)CCCC3)C1CCCCC1` [compound 156, (S)-1-cyclohexyl-2-(2-pyridin-4-yl-5,6,7,8-tetrahydro-benzo[4,5]thieno[2,3-d]pyrimidin-4-yloxy)-ethylamine], the IC50 lay in the range of 1 to 10 µM.
Consider `N[C@H](COc1nc(-c2ccncc2)nc2sc3c(c12)CCCC3)CC1CCCCC1` [compound 157, (S)-2-Cyclohexyl-1-(2-pyridin-4-yl-5,6,7,8-tetrahydro-benzo[4,5]thieno[2,3-d]pyrimidin-4-yloxymethyl)-ethylamine], for which the 50% inhibitory concentration (IC50) fell in the range of 1 to 10 µM.
On to `N[C@H](COc1nc(-c2ccncc2)nc2sc3c(c12)CCCC3)Cc1c[nH]c2ccccc12` [compound 158, (S)-2-(1H-Indol-3-yl)-1-(2-pyridin-4-yl-5,6,7,8-tetrahydro-benzo[4,5]thieno[2,3-d]pyrimidin-4-yloxymethyl)-ethylamine], for which the concentration for half-maximal inhibition (IC50) is 10 to 40 µM.
On to `COc1ccc(C[C@H](N)COc2nc(-c3ccncc3)nc3sc4c(c23)CCCC4)cc1` [compound 159, (S)-1-(4-methoxy-benzyl)-2-(2-pyridin-4-yl-5,6,7,8-tetrahydro-benzo[4,5]thieno [2,3-d]pyrimidin-4-yloxy)-ethylamine], for which the half-inhibitory concentration (IC50) was 1 to 10 µM.
As to `N[C@H](COc1nc(-c2ccncc2)nc2sc3c(c12)CCCC3)Cc1ccc2ccccc2c1` [compound 160, (S)-1-Naphthalen-2-ylmethyl-2-(2-pyridin-4-yl-5,6,7,8-tetrahydro-benzo[4,5]thieno[2,3-d]pyrimidin-4-yloxy)-ethylamine], the 50% inhibitory concentration (IC50) was 10 to 40 µM.
